In the METLIN SMRT retention time set (Domingo-Almenara et al. 2019):

Test: gradient 5% acetonitrile 3 min, to 50% in 2 min, to 85% in 15 min, held 3 min, 100 µL/min
Conditions: column: Zorbax Extend-C18 2.1 x 50 mm; eluents: water / acetonitrile, 0.1% formic acid
Method in brief: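 Retention time was recorded from adduct peaks, which were picked computationally and each inspected manually. Pure standards ran in mixtures of ~100 molecules on HPLC coupled to a quadrupole time-of-flight mass spectrometer, in positive and negative ionization mode, through a Zorbax Extend-C18 column (2.1 × 50 mm, 1.8 μm) at 100 μL/min. Eluents were water and acetonitrile, each with 0.1% formic acid.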

RP-LC retention time [s] | Compound
869 | Cc1cc(C)cc(NS(=O)(=O)c2cc3n(c2)CCN(CC(C)C)C3=O)c1
696 | CC(C)NC(=O)NCC1Cn2cccc2C(=O)N1Cc1ccccc1 (centres undefined)
1100 | CCOc1ccc(-c2noc(Cc3nnc(-c4cc(F)cc(F)c4)o3)n2)cc1
749 | COC(=O)c1c(C)[nH]c(C(=O)N2CCC(CC(=O)NCc3ccccc3C)CC2)c1C
722 | Cc1ccc(Nc2nc3ccncc3n(C(C)C)c2=O)cc1F
922 | CCOC(=O)c1c(NCc2ccc(C)cc2)c2ccc(Cl)cc2[nH]c1=O
616 | COC(=O)C1=C(N)Oc2cc(C)n(CCN(C)C)c(=O)c2C1c1ccccc1F (centres undefined)
673 | O=C1CCCN1c1ccc(Cn2nc3c(S(=O)(=O)N4CCCC4)cccn3c2=O)cc1
933 | COc1ccc(Cl)cc1NC(=O)N1C[C@@H](F)C[C@H]1C(=O)N1CCc2ccccc2C1
725 | O=C(c1ccccc1C(F)(F)F)N1CCN(S(=O)(=O)C2CC2)CC1
871 | CCC(C)NC(=O)c1cc(COc2ccc(NC(=O)CC(C)C)cc2)on1 (centres undefined)
1120 | CCOC(=O)c1noc2nc(C)nc(Nc3cccc(F)c3)c12
959 | O=C(Nc1ccc(Cl)cc1)C1CCCN(S(=O)(=O)c2c[nH]c(C(=O)N3CCCCCC3)c2)C1 (centres undefined)
647 | CC12CC(NC(=O)N1c1cccc(C(=O)NCc3ccccn3)c1)c1cc(Cl)ccc1O2 (centres undefined)
876 | COc1cc(NS(=O)(=O)c2cn(C(C)C)c3ncccc23)cc(OC)c1
582 | COc1cccc(-c2nnc3sc(CN4CCc5ccccc5C4)cn23)c1
822 | Cc1cc2c(cc1S(=O)(=O)N1CCCC1C(=O)NCCCc1ccccc1)OC(C)C(=O)N2 (centres undefined)
674 | CCc1nnc([C@@H]2CC(F)(F)CN2C(=O)Cc2cc(C)no2)o1
857 | CCOC(=O)C(CC)n1cnc2c(cnn2-c2ccccc2)c1=O (centres undefined)
706 | COC(=O)Cn1c(COc2ccccc2)nc2ccccc21
943 | CCOC(=O)c1cc(S(=O)(=O)N2CCCC2C(=O)N(CC)c2cccc(C)c2)cn1C (centres undefined)
1160 | COc1ccc(NC(=O)Cc2c(C)nn(-c3nc(-c4ccccc4)cs3)c2C)c(OC)c1
677 | O=C(c1noc2ccc(S(=O)(=O)N3CCN(c4ccccn4)CC3)cc12)N1CCCC1

RP-LC retention time [s] | Compound
1110 | CC(C)(C)C(=O)Nc1ccc(-c2nc(-c3ccccc3)co2)cc1
742 | COc1ccc2[nH]c(C(=O)N3CC(n4cc(COCC5CC5)nn4)C3)cc2c1
835 | COc1ccc(CNC(=O)C2=C3CCCN3c3ccccc3S2(=O)=O)c(OC)c1
1100 | N#Cc1cccc(Cn2nc(-c3nc(-c4ccc(Cl)cc4)no3)ccc2=O)c1
618 | COc1cccc(CNC(=O)CN2CCc3[nH]c4c(OC)ccc(Cl)c4c(=O)c3C2)c1
1110 | Cc1cc(C)cc(C(=O)N2CCCC(C(=O)Nc3ccc(Br)c(C)c3)C2)c1 (centres undefined)
714 | Cc1cc(S(=O)(=O)Nc2cccnc2)c(Cl)cc1Cl
769 | CCn1cnc2ccc(-c3noc(-c4cccc(F)c4)n3)cc21
928 | CN(C)c1ccc(N2C=C(C(=O)N3CCCC3)S(=O)(=O)c3ccc(Cl)cc32)cc1
792 | COC(=O)c1ncn2c1C(=O)N(Cc1ccccc1C)C(C)(C(=O)NC1CCCCC1)C2 (centres undefined)
841 | CCCNC(=O)N(C1CCOCC1)C1CCN(S(=O)(=O)c2ccc(C)cc2C)CC1
714 | Cc1ccc(NC(=O)CCC2CCN(c3cc(NC4CC4)ncn3)CC2)c(C)c1
618 | Cc1ccc2nc3c(c(C(=O)NC(C)C)c2c1)CCCC3
595 | Nc1cccc2c1CN(C1CCC(=O)NC1=O)C2=O (centres undefined)
866 | COc1ccc(OC)c(S(=O)(=O)N2CCC(C)(c3noc(C)n3)CC2)c1
935 | CCOC(=O)CNC(=O)N1CC(CC)Oc2ccc(C)cc21 (centres undefined)
1090 | Cc1ccc2c(c1)N(S(C)(=O)=O)CCC(C(=O)Nc1ccc(C)c(Cl)c1)O2 (centres undefined)
794 | O=C(NCc1ccccc1F)c1cc2n(n1)CCCC2
932 | CC(CCc1ccccc1)NC(=O)Cn1c(=O)n(C(C)C)c2ccc(S(=O)(=O)N3CCCC3)cc21 (centres undefined)
747 | Cc1nnc(-c2cn(CC(=O)Nc3ccc(F)cc3F)c3ccccc23)o1
870 | O=C(C1CC1)N1CCc2sc(S(=O)(=O)Nc3ccc(F)cc3Cl)cc2C1
691 | COc1cc(NC(=O)c2c(OC)cc(=O)n3c2CCCC3)cc(OC)c1
962 | CC(C)c1cccc(NC(=O)Cn2cc(-c3nc(-c4cccs4)no3)ccc2=O)c1

RP-LC retention time [s] | Compound
604 | O=C(NC1CCN(Cc2ccccc2)CC1)C1CCCN(c2ncnc3c2oc2ccccc23)C1 (centres undefined)
844 | Cc1c(C(=O)NCc2ccco2)nnn1-c1ccc(Br)cc1
658 | Cc1ccc(CN2C(=O)COC[C@H]2C(=O)NC2CC2)cc1
640 | CCC(=O)N1CCc2c(C(=O)NCc3ccc(N4CCC(C)CC4)cc3)cccc21
865 | CCCn1cc(CCNS(=O)(=O)c2ccc(OC)c(Cl)c2)c2cccnc21
627 | CCCCN(C)C(=O)Cn1c(C2CCCN2C(C)=O)nc2ccccc21 (centres undefined)
742 | CN(CC1(C)CCOCC1)C(=O)COc1ccccc1
1140 | COc1ccc(N2N=NC3C(=O)N(c4ccc(F)cc4)C(=O)C32)cc1OC (centres undefined)
1030 | O=C1CCC(=O)N1CCc1c[nH]c2ccc(OCc3ccccc3)cc12
790 | O=C(c1ccccc1Cl)N(CCc1ccccc1)Cc1ccccn1
923 | COc1ccc(C(=O)Nc2cnn(C)c(=O)c2N2CCCCC2)cc1
788 | NS(=O)(=O)c1ccc(Cl)c(-c2nnc(-c3ccccc3)o2)c1
559 | O=C(C1CCCN(Cc2nc(-c3ccncc3)no2)C1)N1CCN(c2ncccn2)CC1 (centres undefined)
595 | Cc1ccc2c(Nc3ccc(S(N)(=O)=O)cc3)c(C(=O)N3CCCCCC3)cnc2n1
622 | COc1ccc(CC(=O)NCc2c(C)nc3sc(C)nn23)c(Cl)c1
1010 | Cc1nc(-c2cc(S(=O)(=O)NCc3ccc(F)c(Cl)c3)c(C)s2)cs1
868 | O=C(NCCc1c[nH]c2ccccc12)c1cc(-c2ccccn2)nc2ccccc12
1010 | Cc1cccc(-c2cc3n(n2)CCCN(C(=O)COc2ccc(Cl)cc2)C3)c1
585 | CCS(=O)(=O)N1C[C@@H](COC)[C@H](c2ccccn2)C1
1220 | Cc1noc(C)c1S(=O)(=O)N1CCC2(CC1)CC(CCOc1ccc(F)cc1)CCO2 (centres undefined)
1030 | Cc1ccc(C)c(-c2csc(Nc3ccc(S(=O)(=O)Nc4nc(C)cc(C)n4)cc3)n2)c1
880 | Cc1ccc(NC(=O)C2CCc3nc(N4CCOCC4)ncc3C2)cc1Cl (centres undefined)
928 | CCS(=O)(=O)c1nc2ccc(NS(=O)(=O)c3cccc(Cl)c3)cc2s1

RP-LC retention time [s] | Compound
758 | COC(=O)N1CCC(c2ccc(OC)cc2)C1 (centres undefined)
1060 | CCn1cc(-c2nc(C(=O)Nc3cccc(OC)c3)cs2)c2cccnc21
614 | CCOCC(=O)N1CCC2(CC1)CC(O)(CC)CCO2 (centres undefined)
1010 | CCc1ccc(NS(=O)(=O)c2ccc3c(c2)C(=O)N(C)c2ncccc2O3)cc1
662 | COCC(=O)N1CCCN(C2=NS(=O)(=O)C(c3ccccc3)=C2C)CC1
1360 | Fc1ccc(-c2noc(-c3ccc(N4CCCCC4)nc3)n2)cc1
852 | CCOc1ccc(N(CC)C(=O)C(=O)c2c[nH]c3ccccc23)cc1
1030 | CCn1c(=O)c(N2CCN(C(=O)Nc3ccc(Br)cc3F)CC2)nc2ccccc21
579 | O=C(Nc1ccc(-c2nc3ccccc3[nH]2)cc1)c1cccs1
648 | COc1ccc(CNC(=O)Cc2csc3nc(-c4ccc(OC)c(OC)c4)cn23)cc1OC
809 | CC(NC(=O)C1CCN(C(=O)c2ncn3c2COC(c2ccc(F)cc2)C3)CC1)c1ccccc1 (centres undefined)
815 | COc1cccc(NC(=O)NCc2cc(C)oc2C)c1OC
849 | Cc1[nH]c(C(=O)N2CCC(CC(=O)N3CCC(C)CC3)CC2)c(C)c1C(=O)OC(C)C
1310 | Cc1ccc(-c2nnc(-c3ccc(N4CCC(C)CC4)nc3)o2)cc1
670 | Cc1ccc(CNC(=O)CNC(=O)N2CCSc3nc(C)cc(C)c32)cc1
896 | Cc1ccc(CNC(=O)CCc2conc2-c2ccccc2)cc1
961 | CCOC(=O)C1CCN(C(=O)c2nnc(-c3ccc(S(=O)(=O)N4CCCCC4)cc3)o2)CC1
633 | O=C1CCN(C(=O)c2ccco2)CCCCCCN1
822 | CCN1CCN(c2cc(-c3nc(-c4ccccc4)no3)c3ccccc3n2)CC1
1320 | Cc1sc(C)c(S(=O)(=O)N2CCC(C)CC2)c1-c1cc(C(F)(F)F)on1
